# Measurements as given in patent US20230036854A1, “HETEROCYCLIC SPIRO-COMPOUNDS AS AM2 RECEPTOR INHIBITORS” (THE UNIVERSITY OF SHEFFIELD, priority 2018, published 2023).
# Biological target: T1, AM2 receptor (1321N1 cells transfected with CALCRL+RAMP3) (Homo sapiens, UniProt O60896+Q16602)
# T1 construct: host or cells: 1321N1 cells
# Assay: AM2 receptor inhibition, LANCE cAMP agonist-antagonist competition assay
# Type: cell-based
# Conditions: inhibition of AM induced cAMP activation, read-out: AM2 D2 protocol: pIC50 (converted)
# Method in brief: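 1321N1 cells co-expressing CALCRL and RAMP3 (2500/well) were preincubated with compound for 30 min at room temperature, then stimulated with adrenomedullin at its EC50 dose for 15 min in HBSS/HEPES/BSA buffer, pH 7.4. cAMP was measured by LANCE TR-FRET and normalised to forskolin (100%) and vehicle (0%) controls.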
# T1 sequence (Q16602 23-461): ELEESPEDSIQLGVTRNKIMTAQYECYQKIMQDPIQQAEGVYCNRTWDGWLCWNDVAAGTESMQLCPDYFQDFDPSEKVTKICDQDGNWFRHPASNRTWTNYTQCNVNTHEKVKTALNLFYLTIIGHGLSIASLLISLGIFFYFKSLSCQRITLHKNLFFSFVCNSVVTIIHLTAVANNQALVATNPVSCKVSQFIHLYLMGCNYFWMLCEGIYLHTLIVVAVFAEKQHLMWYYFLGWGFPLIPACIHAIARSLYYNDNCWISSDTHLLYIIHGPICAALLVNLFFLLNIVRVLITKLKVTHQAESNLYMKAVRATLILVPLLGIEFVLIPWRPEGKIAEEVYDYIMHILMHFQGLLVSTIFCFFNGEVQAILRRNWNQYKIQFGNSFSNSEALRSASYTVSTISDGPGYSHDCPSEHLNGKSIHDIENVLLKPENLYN
# T1 sequence (O60896 24-148): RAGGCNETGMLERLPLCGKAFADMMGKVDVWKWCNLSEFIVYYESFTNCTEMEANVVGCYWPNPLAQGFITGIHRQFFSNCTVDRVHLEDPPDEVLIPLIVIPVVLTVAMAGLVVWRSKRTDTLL
row,IC50,SMILES
1,22.9 nM,"CNCc1ccccc1CN(CC(=O)Nc1ccc2c(c1)C[C@@]1(C2)C(=O)Nc2ncccc21)C(=O)C1(CC(F)(F)F)CCN(C(C)=O)CC1 [Example 120, (R)-1-Acetyl-N-(2-((methylamino)methyl)benzyl)-N-(2-oxo-2-((2′-oxo-1,1′,2′,3-tetrahydrospiro[indene-2,3′-pyrrolo[2,3-b]pyridin]-5-yl)amino)ethyl)-4-(2,2,2-trifluoroethyl)piperidine-4-carboxamide]"
2,2.19 nM,CCC1(C(=O)N(CC(=O)Nc2ccc3c(c2)C[C@@]2(C3)C(=O)Nc3ncccc32)Cc2ccccc2CNC)CCN(C(=O)C23CC(C2)C3)CC1 [Example 87]
3,7.41 nM,"CCC1(C(=O)N(CC(=O)Nc2ccc3c(c2)C[C@@]2(C3)C(=O)Nc3ncccc32)Cc2ccccc2CNC)CCN(C(=O)[C@@H](N)c2ccccc2)CC1 [Example 79, 1-((S)-2-Amino-2-phenylacetyl)-4-ethyl-N-(2-((methylamino)methyl)benzyl)-N-(2-oxo-2-(((R)-2′-oxo-1,1′,2′,3-tetrahydrospiro[indene-2,3′-pyrrolo[2,3-b]pyridin]-5-yl)amino)ethyl)piperidine-4-carboxamide]"
4,8.32 nM,"CNCc1ccccc1CN(CC(=O)Nc1ccc2c(c1)C[C@@]1(C2)C(=O)Nc2ncccc21)C(=O)C1(CC2CC2)CCN(C(C)=O)CC1 [Example 122, (R)-1-Acetyl-4-(cyclopropylmethyl)-N-(2-((methylamino)methyl)benzyl)-N-(2-oxo-2-((2′-oxo-1,1′,2′,3-tetrahydrospiro[indene-2,3′-pyrrolo[2,3-b]pyridin]-5-yl)amino)ethyl)piperidine-4-carboxamide]"
5,4.57 nM,"CCC1(C(=O)N(CC(=O)Nc2ccc3c(c2)C[C@@]2(C3)C(=O)Nc3ncccc32)Cc2ccccc2CNC)CCN(S(=O)(=O)NC)CC1 [Example 117, (R)-4-Ethyl-N-(2-((methylamino)methyl)benzyl)-1-(N-methylsulfamoyl)-N-(2-oxo-2-((2′-oxo-1,1′,2′,3-tetrahydrospiro[indene-2,3′-pyrrolo[2,3-b]pyridin]-5-yl)amino)ethyl)piperidine-4-carboxamide]"
6,34.7 nM,"CCC1(C(=O)N(CC(=O)Nc2ccc3c(c2)C[C@@]2(C3)C(=O)Nc3ncccc32)Cc2ccccc2CNC)CCN(S(=O)(=O)N(C)C)CC1 [Example 118, (R)-1-(N,N-Dimethylsulfamoyl)-4-ethyl-N-(2-((methylamino)methyl)benzyl)-N-(2-oxo-2-((2′-oxo-1,1′,2′,3-tetrahydrospiro[indene-2,3′-pyrrolo[2,3-b]pyridin]-5-yl)amino)ethyl)piperidine-4-carboxamide]"
7,57.5 nM,"CCC1(C(=O)N(CC(=O)Nc2ccc3c(c2)C[C@@]2(C3)C(=O)Nc3ncccc32)Cc2ccccc2CNC)CCN(C(=O)[C@H](N)C(C)C)CC1 [Example 80, 1-((R)-2-Amino-3-methylbutanoyl)-4-ethyl-N-(2-((methylamino)methyl)benzyl)-N-(2-oxo-2-(((R)-2′-oxo-1,1′,2′,3-tetrahydrospiro[indene-2,3′-pyrrolo[2,3-b]pyridin]-5-yl)amino)ethyl)piperidine-4-carboxamide]"
8,56.2 nM,"CNCc1ccccc1CN(CC(=O)Nc1ccc2c(c1)CC1(C2)C(=O)Nc2ncccc21)C(=O)C12CCN(CC1)CC2 (stereo not shown) [Example 139, N-(2-((Methylamino)methyl)benzyl)-N-(2-oxo-2-((2′-oxo-1,1′,2′,3-tetrahydrospiro[indene-2,3′-pyrrolo[2,3-b]pyridin]-5-yl)amino)ethyl)quinuclidine-4-carboxamide]"
9,302 nM,"CC1(C(=O)N(CC(=O)Nc2ccc3c(c2)C[C@@]2(C3)C(=O)Nc3ncccc32)Cc2ccccc2CN)CCNCC1 [Example 131, (R)—N-(2-(Aminomethyl)benzyl)-4-methyl-N-(2-oxo-2-((2′-oxo-1,1′,2′,3-tetrahydrospiro[indene-2,3′-pyrrolo[2,3-b]pyridin]-5-yl)amino)ethyl)piperidine-4-carboxamide]"
10,57.5 nM,"CCC1(C(=O)N(CC(=O)Nc2ccc3c(c2)C[C@@]2(C3)C(=O)Nc3ncccc32)Cc2ccccc2CNC)CCN(C(=O)N2CCC(F)(F)CC2)CC1 [Example 107, (R)-1-(4,4-Difluoropiperidine-1-carbonyl)-4-ethyl-N-(2-((methylamino)methyl)benzyl)-N-(2-oxo-2-((2′-oxo-1,1′,2′,3-tetrahydrospiro[indene-2,3′-pyrrolo[2,3-b]pyridin]-5-yl)amino)ethyl)piperidine-4-carboxamide]"

# Continued, molecule first:
row,SMILES,IC50
1,"CNCc1ccccc1CN(CC(=O)Nc1ccc2c(c1)CC1(C2)C(=O)Nc2ncccc21)C(=O)C1(C)CCN(C(C)=O)CC1 (stereo not shown) [Example 1, 1-Acetyl-4-methyl-N-(2-((methylamino)methyl)benzyl)-N-(2-oxo-2-((2′-oxo-1,1′,2′,3-tetrahydrospiro[indene-2,3′-pyrrolo[2,3-b]pyridin]-5-yl)amino)ethyl)piperidine-4-carboxamide 2,2,2-trifluoroacetate]",2.57 nM
2,"CNCc1ccccc1CN(C(=O)C1(C)CCN(C(C)=O)CC1)[C@@H](C)C(=O)Nc1ccc2c(c1)C[C@@]1(C2)C(=O)Nc2ncccc21 [Example 66, 1-Acetyl-4-methyl-N-(2-((methylamino)methyl)benzyl)-N—((S)-1-oxo-1-(((R)-2′-oxo-1,1′,2′,3-tetrahydrospiro[indene-2,3′-pyrrolo[2,3-b]pyridin]-5-yl)amino)propan-2-yl)piperidine-4-carboxamide]",457 nM
3,"CNCc1ccccc1CN(CC(=O)Nc1ccc2c(c1)C[C@@]1(C2)C(=O)Nc2ncccc21)C(=O)C1(C)CCN(C(=O)c2ccc(C(=O)O)cc2)CC1 [Example 35, (R)-4-(4-Methyl-4-((2-((methylamino)methyl)benzyl)(2-oxo-2-((2′-oxo-1,1′,2′,3-tetrahydrospiro[indene-2,3′-pyrrolo[2,3-b]pyridin]-5-yl)amino)ethyl)carbamoyl)piperidine-1-carbonyl)benzoic Acid]",3.8 nM
4,"CNCc1ccccc1CN(CC(=O)Nc1ccc2c(c1)C[C@@]1(C2)C(=O)Nc2ncccc21)C(=O)C1(C)CCN(CC(=O)N2CCNCC2)CC1 [Example 44, (R)-4-Methyl-N-(2-((methylamino)methyl)benzyl)-N-(2-oxo-2-((2′-oxo-1,1′,2′,3-tetrahydrospiro[indene-2,3′-pyrrolo[2,3-b]pyridin]-5-yl)amino)ethyl)-1-(2-oxo-2-(piperazin-1-yl)ethyl)piperidine-4-carboxamide]",10.7 nM
5,"CNCc1ccccc1CN(CC(=O)Nc1ccc2c(c1)CC1(C2)C(=O)Nc2ncccc21)C(=O)C1(C)CCN(C(=O)C2CCC2)CC1 (stereo not shown) [Example 5, 1-(Cyclobutanecarbonyl)-4-methyl-N-(2-((methylamino)methyl)benzyl)-N-(2-oxo-2-((2′-oxo-1,1′,2′,3-tetrahydrospiro[indene-2,3′-pyrrolo[2,3-b]pyridin]-5-yl)amino)ethyl)piperidine-4-carboxamide]",1.48 nM
6,"CNCc1ccccc1CN(CC(=O)Nc1ccc2c(c1)C[C@@]1(C2)C(=O)Nc2ncccc21)C(=O)C1(C)CCN(C)CC1 [Example 36, (R)-1,4-Dimethyl-N-(2-((methylamino)methyl)benzyl)-N-(2-oxo-2-((2′-oxo-1,1′,2′,3-tetrahydrospiro[indene-2,3′-pyrrolo[2,3-b]pyridin]-5-yl)amino)ethyl)piperidine-4-carboxamide]",1.82 nM
7,"CCC1(C(=O)N(CC(=O)Nc2ccc3c(c2)C[C@@]2(C3)C(=O)Nc3ncccc32)Cc2ccccc2CNC)CCN(C(=O)C(C)(C)C)CC1 [Example 69, 1-(2,2-Dimethylpropanoyl)-4-ethyl-N-[[2-(methylaminomethyl)phenyl]methyl]-N-[2-oxo-2-[[(3R)-2-oxospiro[1H-pyrrolo[2,3-b]pyridine-3,2′-indane]-5′-yl]amino]ethyl]piperidine-4-carboxamide]",30.2 nM
8,"CNCc1ccccc1CN(CC(=O)Nc1ccc2c(c1)CC1(C2)C(=O)Nc2ncccc21)C(=O)C1(C)CCN(C(=O)COC)CC1 (stereo not shown) [Example 21, 1-(2-Methoxyacetyl)-4-methyl-N-(2-((methylamino)methyl)benzyl)-N-(2-oxo-2-((2′-oxo-1,1′,2′,3-tetrahydrospiro[indene-2,3′-pyrrolo[2,3-b]pyridin]-5-yl)amino)ethyl)piperidine-4-carboxamide]",1.51 nM
9,"CNCc1ccccc1CN(CC(=O)Nc1ccc2c(c1)C[C@@]1(C2)C(=O)Nc2ncccc21)C(=O)C1(C)CCN(C(=O)c2ncccn2)CC1 [Example 18, (R)-4-Methyl-N-(2-((methylamino)methyl)benzyl)-N-(2-oxo-2-((2′-oxo-1,1′,2′,3-tetrahydrospiro[indene-2,3′-pyrrolo[2,3-b]pyridin]-5-yl)amino)ethyl)-1-(pyrimidine-2-carbonyl)piperidine-4-carboxamide]",7.41 nM
10,"CNCc1ccccc1CN(CC(=O)Nc1ccc2c(c1)C[C@@]1(C2)C(=O)Nc2ncccc21)C(=O)C1(C)CCN(C(=O)c2cccc(N)n2)CC1 [Example 10, (R)-1-(6-Aminopicolinoyl)-4-methyl-N-(2-((methylamino)methyl)benzyl)-N-(2-oxo-2-((2′-oxo-1,1′,2′,3-tetrahydrospiro[indene-2,3′-pyrrolo[2,3-b]pyridin]-5-yl)amino)ethyl)piperidine-4-carboxamide]",8.91 nM
11,CNCc1ccccc1CN(CC(=O)Nc1ccc2c(c1)C[C@@]1(C2)C(=O)Nc2ncccc21)C(=O)C1(C)CCN(c2ccccn2)CC1 [Example 62],77.6 nM
12,"CNCc1ccccc1CN(CC(=O)Nc1ccc2c(c1)C[C@@]1(C2)C(=O)Nc2ncccc21)C(=O)C1(C)CCN(CC(N)=O)CC1 [Example 37, (R)-1-(2-Amino-2-oxoethyl)-4-methyl-N-(2-((methylamino)methyl)benzyl)-N-(2-oxo-2-((2′-oxo-1,1′,2′,3-tetrahydrospiro[indene-2,3′-pyrrolo[2,3-b]pyridin]-5-yl)amino)ethyl)piperidine-4-carboxamide]",35.5 nM
